Target: T1, recombinant human G9a protein (Homo sapiens, UniProt Q96KQ7)
T1 construct: purchased BPS Bioscience Inc. #51001
T1 sequence (Q96KQ7 785-1210 limits assumed): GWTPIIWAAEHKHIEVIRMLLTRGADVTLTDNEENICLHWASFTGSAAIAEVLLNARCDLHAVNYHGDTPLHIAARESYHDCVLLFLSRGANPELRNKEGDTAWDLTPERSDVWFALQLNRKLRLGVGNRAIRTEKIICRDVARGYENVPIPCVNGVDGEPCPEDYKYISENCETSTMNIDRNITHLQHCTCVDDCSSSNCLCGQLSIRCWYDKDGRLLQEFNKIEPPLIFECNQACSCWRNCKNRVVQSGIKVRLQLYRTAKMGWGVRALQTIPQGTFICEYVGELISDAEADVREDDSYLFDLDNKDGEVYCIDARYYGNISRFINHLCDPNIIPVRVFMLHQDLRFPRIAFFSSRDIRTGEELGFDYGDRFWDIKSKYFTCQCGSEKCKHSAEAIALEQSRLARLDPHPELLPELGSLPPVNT
Experiment: G9a inhibitory activity test (ALPHA)
Format: biochemical
Settings: read-out: Inhibitory activity (G9a IC50)
How it was run: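 Human G9a (0.05 to 0.1 nM) in Tris pH 9.0 buffer preincubated with compound 10 min, then biotinylated histone H3 (1-21) peptide and SAM mixed 1:1 from 500 nM and 150 μM solutions, 1 h at room temperature. H3K9me2 detected by AlphaLISA acceptor/streptavidin donor beads; IC50 from percent inhibition relative to no-compound and no-enzyme controls.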

Structure (SMILES) | IC50 [nM]
CCCC[C@H](NC(=O)c1[nH]c2c(c1C)C(=O)CC(C)(C)C2)C(=O)NCc1ccc(N2CCN(CCO)CC2)cc1 [Example 23, (S)-N-(1-((4-(4-(2-hydroxyethyl)piperazin-1-yl)benzyl)amino)-1-oxohexan-2-yl)-3,6,6-trimethyl-4-oxo-4,5,6,7-tetrahydro-1H-indole-2-carboxamide] | ≥ 200
CCCCC(NC(=O)c1[nH]c2c(c1C)C(=O)CC(C)(C)C2)C(=O)Nc1ccc(OCCNC)nc1 (stereo not drawn) [Example 24-1, 3,6,6-trimethyl-N-[1-[[6-[2-(methylamino)ethoxy]pyridin-3-yl]amino]-1-oxohexan-2-yl]-4-oxo-5,7-dihydro-1H-indole-2-carboxamide] | 50 to 200
CCCCC(NC(=O)c1[nH]c2c(c1C)C(=O)CC(C)(C)C2)C(=O)NCc1ccc(CN)cc1 (stereo not drawn) [Example 24-2] | < 50
CCCCC(NC(=O)c1[nH]c2c(c1C)C(=O)CC(C)(C)C2)C(=O)NCc1ccc(CCN)cc1 (stereo not drawn) [Example 24-3] | < 50
CCCCC(NC(=O)c1[nH]c2c(c1C)C(=O)CC(C)(C)C2)C(=O)Nc1ccc(OCCN)nc1 (stereo not drawn) [Example 24-4] | 50 to 200
CCCCC(NC(=O)c1[nH]c2c(c1C)C(=O)CC(C)(C)C2)C(=O)Nc1cc(C)c2nc(N)sc2c1 (stereo not drawn) [Example 24-5] | ≥ 200
CCCCC(NC(=O)c1[nH]c2c(c1C)C(=O)CC(C)(C)C2)C(=O)Nc1cccc2c1CCNC2 (stereo not drawn) [Example 25-1, 3,6,6-trimethyl-4-oxo-N-[1-oxo-1-(1,2,3,4-tetrahydroisoquinolin-5-ylamino)hexan-2-yl]-5,7-dihydro-1H-indole-2-carboxamide] | ≥ 200
CCCCC(NC(=O)c1[nH]c2c(c1C)C(=O)CC(C)(C)C2)C(=O)Nc1ccc2c(c1)CCNC2 (stereo not drawn) [Example 25-2] | 50 to 200
CCCCC(NC(=O)c1[nH]c2c(c1C)C(=O)CC(C)(C)C2)C(=O)Nc1ccc2c(c1)CNCC2 (stereo not drawn) [Example 25-3] | 50 to 200
CCCCC(NC(=O)c1[nH]c2c(c1C)C(=O)CC(C)(C)C2)C(=O)Nc1ccc(OC2CNC2)nc1 (stereo not drawn) [Example 26-1] | 50 to 200
CCCC[C@H](NC(=O)c1[nH]c2c(c1C)C(=O)CC(C)(C)C2)C(=O)Nc1ccc(OC2CNC2)nc1 [Example 26-2] | < 50
CCCC[C@@H](NC(=O)c1[nH]c2c(c1C)C(=O)CC(C)(C)C2)C(=O)Nc1ccc(OC2CNC2)nc1 [Example 26-3] | 50 to 200
CCCCC(NC(=O)c1[nH]c2c(c1C)C(=O)CC(C)(C)C2)C(=O)Nc1ccc(OC2CCNCC2)nc1 (stereo not drawn) [Example 26-4] | < 50
CCCCC(NC(=O)c1[nH]c2c(c1C)C(=O)CC(C)(C)C2)C(=O)Nc1ccc(N2CCNCC2)nc1 (stereo not drawn) [Example 26-5] | 50 to 200
CCCCC(NC(=O)c1[nH]c2c(c1C)C(=O)CC(C)(C)C2)C(=O)Nc1ccc(OC2CNC2)cc1 (stereo not drawn) [Example 26-6] | 50 to 200
CCCCC(NC(=O)c1[nH]c2c(c1C)C(=O)CC(C)(C)C2)C(=O)NCc1ccc(N2CCNCC2)cc1 (stereo not drawn) [Example 26-7] | < 50
CCCC[C@H](NC(=O)c1[nH]c2c(c1C)C(=O)CC(C)(C)C2)C(=O)NCc1ccc(N2CCNCC2)cc1 [Example 26-8] | < 50
CCCCC(NC(=O)c1[nH]c2c(c1C)C(=O)CC(C)(C)C2)C(=O)Nc1ccc(N2CCC3(CNC3)C2)nc1 (stereo not drawn) [Example 27] | 50 to 200
COc1ccc(NC(=O)C(CCC2CC2)NC(=O)c2ccc(C3CCNCC3)cc2)cn1 (stereo not drawn) [Example 28, N-[4-cyclopropyl-1-[(6-methoxypyridine-3-yl)amino]-1-oxobutan-2-yl]-4-piperidin-4-ylbenzamide] | < 50
CCCCC(NC(=O)Cc1ccccc1N)C(=O)Nc1ccc(OC2CCN(C)CC2)nc1 (stereo not drawn) [Example 29] | ≥ 200
Cc1c(C(=O)NC(CCC2CC2)c2nc3ccccc3n2C)[nH]c2c1C(=O)CC(C)(C)C2 (stereo not drawn) [Example 30-1, N-[3-cyclopropyl-1-(1-methylbenzoimidazol-2-yl)propyl]-3,6,6-trimethyl-4-oxo-5,7-dihydro-H-indole-2-carboxamide] | 50 to 200

Structure (SMILES) | IC50 [nM]
Cc1c(C(=O)NC(CCC2CC2)c2nc3cccc(C)c3n2C)[nH]c2c1C(=O)CC(C)(C)C2 (stereo not drawn) [Example 30-2] | 50 to 200
COC(=O)c1ccc2c(c1)nc(C(CCC1CC1)NC(=O)c1[nH]c3c(c1C)C(=O)CC(C)(C)C3)n2C (stereo not drawn) [Example 30-3] | ≥ 200
Cc1ccc2nc(C(CCC3CC3)NC(=O)c3[nH]c4c(c3C)C(=O)CC(C)(C)C4)n(C)c2c1 (stereo not drawn) [Example 30-4] | ≥ 200
Cc1c(C(=O)NC(CCC2CC2)c2nc3cccc(CN(C)C)c3n2C)[nH]c2c1C(=O)CC(C)(C)C2 (stereo not drawn) [Example 31-1, N-[3-cyclopropyl-1-[7-[(dimethylamino)methyl]-1-methylbenzoimidazol-2-yl]propyl]-3,6,6-trimethyl-4-oxo-5,7-dihydro-1H-indole-2-carboxamide] | ≥ 200
Cc1c(C(=O)NC(CCC2CC2)c2nc3ccc(CN(C)C)cc3n2C)[nH]c2c1C(=O)CC(C)(C)C2 (stereo not drawn) [Example 31-2] | ≥ 200
Cc1c(C(=O)NC(CCC2CC2)c2nc3c(CN(C)C)cccc3n2C)[nH]c2c1C(=O)CC(C)(C)C2 (stereo not drawn) [Example 31-3] | ≥ 200
CCN(CC)Cc1cccc2c1nc(C(CCC1CC1)NC(=O)c1[nH]c3c(c1C)C(=O)CC(C)(C)C3)n2C (stereo not drawn) [Example 31-4] | ≥ 200
Cc1c(C(=O)NC(CCC2CC2)c2nc3c(CN4CCCC4)cccc3n2C)[nH]c2c1C(=O)CC(C)(C)C2 (stereo not drawn) [Example 31-5] | 50 to 200
Cc1c(C(=O)NC(CCC2CC2)c2nc3c(CN4CCN(C)CC4)cccc3n2C)[nH]c2c1C(=O)CC(C)(C)C2 (stereo not drawn) [Example 31-6] | ≥ 200
Cc1c(C(=O)NC(CCC2CC2)c2nc3c(CN(C)C4CCN(C)CC4)cccc3n2C)[nH]c2c1C(=O)CC(C)(C)C2 (stereo not drawn) [Example 31-7] | ≥ 200
Cc1c(C(=O)NC(CCC2CC2)c2nc3cc(CN(C)C)ccc3n2C)[nH]c2c1C(=O)CC(C)(C)C2 (stereo not drawn) [Example 32, N-[3-cyclopropyl-1-[5-[(dimethylamino)methyl]-1-methylbenzoimidazol-2-yl]propyl]-3,6,6-trimethyl-4-oxo-5,7-dihydro-1H-indole-2-carboxamide] | ≥ 200
Cc1c(C(=O)NC(CCC2CC2)c2nc3cc(CO)ccc3n2C)[nH]c2c1C(=O)CC(C)(C)C2 (stereo not drawn) [Example 33, N-[3-cyclopropyl-1-[5-(hydroxymethyl)-1-methylbenzoimidazol-2-yl]propyl]-3,6,6-trimethyl-4-oxo-5,7-dihydro-1H-indole-2-carboxamide] | ≥ 200
CCCC[C@H](NC(=O)c1[nH]c2c(c1C)C(=O)CC(C)(C)C2)c1nc2ccc(OCCCN(C)C)cc2[nH]1 [Example 34-1, (S)-N-(1-(6-(3-(dimethylamino)propyloxy)-1H-benzo[d]imidazol-2-yl)pentyl)-3,6,6-trimethyl-4-oxo-4,5,6,7-tetrahydro-1H-indole-2-carboxamide] | ≥ 200
CCCC[C@H](NC(=O)c1[nH]c2c(c1C)C(=O)CC(C)(C)C2)c1nc2ccc(OCCCN3CCCCC3)cc2[nH]1 [Example 34-2] | 50 to 200
CCCC[C@H](NC(=O)c1[nH]c2c(c1C)C(=O)CC(C)(C)C2)c1nc2ccc(OCCCN3CCOCC3)cc2[nH]1 [Example 34-3] | ≥ 200
CCCC[C@H](NC(=O)c1[nH]c2c(c1C)C(=O)CC(C)(C)C2)c1nc2ccc(OC3CCN(C)CC3)cc2[nH]1 [Example 34-4] | ≥ 200
CCCC[C@H](NC(=O)c1[nH]c2c(c1C)C(=O)CC(C)(C)C2)c1nc2ccc(OCCO)cc2[nH]1 [Example 36, (S)-N-(1-(6-(2-hydroxyethoxy)-1H-benzo[d]imidazol-2-yl)pentyl)-3,6,6-trimethyl-4-oxo-4,5,6,7-tetrahydro-1H-indole-2-carboxamide] | ≥ 200
CCCC[C@H](NC(=O)c1[nH]c2c(c1C)C(=O)CC(C)(C)C2)c1nc2ccc(OCCN3CCCCC3)cc2[nH]1 [Example 37-1, (S)-3,6,6-trimethyl-4-oxo-N-(1-(6-(2-(piperidin-1-yl)ethoxy)-1H-benzo[d]imidazol-2-yl)pentyl)-4,5,6,7-tetrahydro-1H-indole-2-carboxamide] | ≥ 200
CCCC[C@H](NC(=O)c1[nH]c2c(c1C)C(=O)CC(C)(C)C2)c1nc2ccc(OCCN3CCOCC3)cc2[nH]1 [Example 37-2] | ≥ 200
CCCC[C@H](NC(=O)c1[nH]c2c(c1C)C(=O)CC(C)(C)C2)c1nc2ccc(OCCN3CCCC3)cc2[nH]1 [Example 37-3] | ≥ 200
CCCC[C@H](NC(=O)c1[nH]c2c(c1C)C(=O)CC(C)(C)C2)c1nc2ccc(OCCN(C)C)cc2[nH]1 [Example 37-4] | ≥ 200

Source: patent publication US20230127046A1, “G9a INHIBITOR” (RIKEN, priority 2019, published 2023)
